Measurements taken from ChEMBL document CHEMBL5584301, “Radioactive ADME Demonstrates ARV-110's High Druggability Despite Low Oral Bioavailability” (J Med Chem, 2024).
One block for each compound: values may come before it. Activity calls are given as the source filed them. No cut-off for these calls is given here.

Legend:
[1] = Drug recovery in Long-Evans rat eye at 45 mg/kg, po measured for 72 hrs by UHPLC analysis; format: ADME, organism-based; conditions: in vivo
[2] = Drug recovery in male Sprague-Dawley rat urine at 45 mg/kg, po measured upto 96 hrs by UHPLC analysis; format: ADME, organism-based; conditions: read-out: Drug recovery
[3] = Drug recovery in female Sprague-Dawley rat urine at 45 mg/kg, po measured upto 96 hrs by UHPLC analysis; format: ADME, organism-based; conditions: read-out: Drug recovery
[4] = Drug recovery in male Sprague-Dawley rat feces at 45 mg/kg, po measured upto 48 hrs by UHPLC analysis; format: ADME, organism-based; conditions: faeces, read-out: Drug recovery
[5] = Drug recovery in female Sprague-Dawley rat feces at 45 mg/kg, po measured upto 48 hrs by UHPLC analysis; format: ADME, organism-based; conditions: faeces, read-out: Drug recovery
[6] = Drug recovery in male Sprague-Dawley rat bile duct at 45 mg/kg, po measured upto 72 hrs by UHPLC analysis; format: ADME, organism-based; conditions: read-out: Drug recovery
[7] = Drug recovery in female Sprague-Dawley rat bile duct at 45 mg/kg, po measured upto 72 hrs by UHPLC analysis; format: ADME, organism-based; conditions: read-out: Drug recovery
[8] = Drug metabolism in Long-Evans rat at 45 mg/kg, po by UHPLC-HR-MS analysis; format: ADME, organism-based; conditions: in vivo
[9] = Cmax in BALB/c nude mouse at 0.5 mg/kg, po measured at 6 hrs; format: ADME, organism-based; conditions: in vivo
[10] = Cmax in BALB/c nude mouse at 0.5 mg/kg, po measured at 48 hrs; format: ADME, organism-based; conditions: in vivo
[11] = Ratio of drug exposure in tumor to plasma of BALB/c mouse at 0.5 mg/kg, po; format: ADME, organism-based; conditions: tumor and plasma
[12] = Drug distribution in BALB/c mouse digestive tract at 0.5 mg/kg, po by QWBA analysis; format: ADME, organism-based; conditions: in vivo
[13] = Drug distribution in BALB/c mouse liver at 0.5 mg/kg, po by QWBA analysis; format: ADME, organism-based; conditions: in vivo
[14] = Drug distribution in BALB/c mouse harderian gland at 0.5 mg/kg, po by QWBA analysis; format: ADME, organism-based; conditions: in vivo
[15] = Drug distribution in BALB/c mouse kidney at 0.5 mg/kg, po by QWBA analysis; format: ADME, organism-based; conditions: in vivo
[16] = Ratio of drug exposure in pigmented skin to plasma of C57BL/6J mouse at 0.5 mg/kg, po; format: ADME, organism-based; conditions: pigmented skin and plasma
[17] = Cmax in C57BL/6J mouse harderian gland at 0.5 mg/kg, po measured at 48 hrs by QWBA analysis; format: ADME, organism-based; conditions: in vivo
[18] = Cmax in C57BL/6J mouse eye at 0.5 mg/kg, po measured at 168 hrs by QWBA analysis; format: ADME, organism-based; conditions: in vivo
[19] = Cmax in C57BL/6J mouse uveal tract at 0.5 mg/kg, po measured at 168 hrs by QWBA analysis; format: ADME, organism-based; conditions: in vivo
[20] = AUC (0 to t ) in C57BL/6J mouse uveal tract at 0.5 mg/kg, po measured at 168 hrs by QWBA analysis; format: ADME, organism-based; conditions: in vivo
[21] = Stability in phosphate buffer at 1 uM; format: physicochemical
[22] = Stability in rat plasma measured after 2 hrs by LC-MS/MS analysis; format: ADME, cell-free
[23] = Stability in rat plasma assessed as drug degradation measured after 2 hrs by LC-MS/MS analysis; format: ADME, cell-free
[24] = Stability in rat plasma assessed as drug hydrolysis measured after 2 hrs by LC-MS/MS analysis; format: ADME, cell-free
[25] = Tmax in Sprague-Dawley rat at 45 mg/kg, po by LSC analysis; format: ADME, organism-based; conditions: in vivo
[26] = Cmax in Sprague-Dawley rat at 45 mg/kg, po by LSC analysis; format: ADME, organism-based; conditions: in vivo
[27] = Half life in Sprague-Dawley rat at 45 mg/kg, po by LSC analysis; format: ADME, organism-based; conditions: in vivo
[28] = AUC (0 to t) in Sprague-Dawley rat at 45 mg/kg, po by LSC analysis; format: ADME, organism-based; conditions: in vivo
[29] = AUC (0 to infinity) in Sprague-Dawley rat at 45 mg/kg, po by LSC analysis; format: ADME, organism-based; conditions: in vivo
[30] = Oral bioavailability in Sprague-Dawley rat at 45 mg/kg by LSC analysis; format: ADME, organism-based; conditions: in vivo
[31] = Tmax in Sprague-Dawley rat at 22.5 mg/kg, po with free access to food and water before administration by LSC analysis; format: ADME, organism-based; conditions: in vivo
[32] = Cmax in Sprague-Dawley rat at 22.5 mg/kg, po with free access to food and water before administration by LSC analysis; format: ADME, organism-based; conditions: in vivo
[33] = Half life in Sprague-Dawley rat at 22.5 mg/kg, po with free access to food and water before administration by LSC analysis; format: ADME, organism-based; conditions: in vivo
[34] = AUC (0 to t) in Sprague-Dawley rat at 22.5 mg/kg, po with free access to food and water before administration by LSC analysis; format: ADME, organism-based; conditions: in vivo
[35] = AUC (0 to infinity) in Sprague-Dawley rat at 22.5 mg/kg, po with free access to food and water before administration by LSC analysis; format: ADME, organism-based; conditions: in vivo
[36] = Oral bioavailability in Sprague-Dawley rat at 22.5 mg/kg with free access to food and water before administration by LSC analysis; format: ADME, organism-based; conditions: in vivo
[37] = Tmax in Sprague-Dawley rat at 22.5 mg/kg, po by LSC analysis; format: ADME, organism-based; conditions: in vivo
[38] = Cmax in Sprague-Dawley rat at 22.5 mg/kg, po by LSC analysis; format: ADME, organism-based; conditions: in vivo
[39] = Half life in Sprague-Dawley rat at 22.5 mg/kg, po by LSC analysis; format: ADME, organism-based; conditions: in vivo
[40] = AUC (0 to t) in Sprague-Dawley rat at 22.5 mg/kg, po by LSC analysis; format: ADME, organism-based; conditions: in vivo
[41] = Oral bioavailability in Sprague-Dawley rat at 22.5 mg/kg by LSC analysis; format: ADME, organism-based; conditions: in vivo
[42] = AUC (0 to infinity) in Sprague-Dawley rat at 22.5 mg/kg, po by LSC analysis; format: ADME, organism-based; conditions: in vivo
[43] = Volume of distribution at steady state in Sprague-Dawley rat at 22.5 mg/kg, iv by LSC analysis; format: ADME, organism-based; conditions: in vivo
[44] = Drug recovery in Sprague-Dawley rat urine at 45 mg/kg, po measured over 168 hrs by UHPLC analysis; format: ADME, organism-based; conditions: read-out: Drug recovery
[45] = Drug recovery in Sprague-Dawley rat feces at 45 mg/kg, po measured over 168 hrs by UHPLC analysis; format: ADME, organism-based; conditions: faeces, read-out: Drug recovery
[46] = Drug recovery in Sprague-Dawley rat bile duct at 45 mg/kg, po measured over 72 hrs by UHPLC analysis; format: ADME, organism-based; conditions: read-out: Drug recovery
[47] = system: DU-145; test: Antitumor activity against human DU-145 cells xenografted in BALB/c nude mouse assessed as reduction in tumor size at 0.5 mg/kg measured daily for 14 days; format: functional, organism-based; conditions: time 14.0 day
[48] = system: Melanin; test: Binding affinity to Melanin (unknown origin) assessed as binding ratio at 0.1 microg/ml measured for 2 hrs; conditions: dose 0.1 µg/ml
[49] = system: Melanin; test: Binding affinity to Melanin (unknown origin) assessed as binding ratio at 1 microg/ml measured for 2 hrs; conditions: dose 1.0 µg/ml
[50] = system: Melanin; test: Binding affinity to Melanin (unknown origin) assessed as binding ratio at 10 microg/ml measured for 2 hrs; conditions: dose 10.0 µg/ml

Drug recovery [1]: 55.17%
dose excreted at 96 h [2]: 2.51%
dose excreted at 96 h [3]: 4.25%
dose excreted at 48 h [4]: 92%
dose excreted at 48 h [5]: 88%
dose excreted at 72 h [6]: 4.55%
dose excreted at 72 h [7]: 4.49%
Drug metabolism [8]: Metabolite_Detected
Cmax [9]: 3165 ngequiv/g
Cmax [10]: 944 ngequiv/g
Kp [11]: 3.99
Drug uptake [12]: Active
Drug uptake [13]: Active
Drug uptake [14]: Active
Drug uptake [15]: Active
Kp [16]: 1.52
Cmax [17]: 2950 ngequiv/g
Cmax [18]: 3185 ngequiv/g
Cmax [19]: 9621 ngequiv/g
AUCt [20]: 2717032 ng·h/g
Structure (SMILES): N#Cc1ccc(O[C@H]2CC[C@H](NC(=O)c3ccc(N4CCC(CN5CCN(c6cc7c(cc6F)[14C](=O)N(C6CCC(=O)NC6=O)[14C]7=O)CC5)CC4)nn3)CC2)cc1Cl (stereo not given in full)

Stability [21]: Stable
Stability [22]: Unstable
Stability [23]: Stable
Stability [24]: Stable
Tmax [25]: 5.5 h
Cmax [26]: 0.49 µg/mL
t1/2 [27]: 15.9 h
AUCt [28]: 12.345 µg·h/mL
AUC [29]: 12.515 µg·h/mL
F [30]: 5.62%
Tmax [31]: 8.5 h
Cmax [32]: 0.842 µg/mL
t1/2 [33]: 14.8 h
AUCt [34]: 23.022 µg·h/mL
AUC [35]: 23.274 µg·h/mL
F [36]: 20.97%
Tmax [37]: 7 h
Cmax [38]: 0.448 µg/mL
t1/2 [39]: 15.4 h
AUCt [40]: 11.74 µg·h/mL
F [41]: 10.75%
AUC [42]: 11.881 µg·h/mL
Vdss [43]: 2.04 L/kg
dose excreted at 168 h [44]: 3.38%
dose excreted at 168 h [45]: 90%
dose excreted at 72 h [46]: 4.54%
inhibition [48]: 91%
inhibition [49]: 90.1%
inhibition [50]: 82.2%
Structure (SMILES): N#Cc1ccc(O[C@H]2CC[C@H](NC(=O)c3ccc(N4CCC(CN5CCN(c6cc7c(cc6F)C(=O)N(C6CCC(=O)NC6=O)C7=O)CC5)CC4)nn3)CC2)cc1Cl (stereo not given in full) [BAVDEGALUTAMIDE]
Activity [47]: Active
